In paper PMC7002685, “Inhibition of vascular calcification by inositol phosphates derivatized with ethylene glycol oligomers” (Nature Communications, 2020):

Legend:
GABAB1A = molecular target: T1, GABAB1A (Homo sapiens, UniProt Q9UBS5); experiment: Off-target 228610; type: binding
T1 construct: purchased Eurofins Panlabs Discovery Services Taiwan, Ltd
Protocol: (§1) The potential off-target activity of 10 µM (OEG2)2-IP4 was assessed against a panel of 87 enzymes, receptors, or ion channels that are used in standard safety pharmacology screens.
(§2) 3.2. Off-target screening assay
(§3) The experiments were conducted by a contract research organization (Eurofins Panlabs Discovery
(§4) Services Taiwan, Ltd.) and details on the respective assays can be retrieved via the catalog number
(§5) provided in Supplementary Table 11 from the company’s webpage
(§6) (https://www.eurofinsdiscoveryservices.com/). […]

[1] = system: panel of 87 enzymes, receptors, or ion channels; experiment: Off-target panel of 87 enzymes, receptors, or ion channels; type: biochemical; conditions: 10 µM
Protocol: as §1, §2
(§7) The experiments were conducted by a contract research organization (Eurofins Panlabs Discovery Services Taiwan, Ltd.) and details on the respective assays can be retrieved via the catalog number provided in Supplementary Table 11 from the company’s webpage
as §6
(§8) At sacrifice the left tibia of animals of the rat model with dietary adenine/high-phosphate-induced uremia and VC was collected, fixed with 70% v/v EtOH and embedded in methyl methacrylate. The trabecular bone compartment is known to be the most metabolic active i.e. actively re-structured bone compartment in CKD. Therefore, histomorphometric and micro-computed tomography (µCT) analysis of bone was performed on the trabecular compartment. Tibial sections were Goldner-stained for histomorphometric analysis of the proximal metaphysis using the AxioVision Release 4.5 software, as […]
(§9) described previously5. […]

vascular calcification = experiment: Adenine and high-phosphate-diet-induced rat model of VC; type: in vivo, male Wistar rats
Protocol: Uremia increases the risk for developing VC. Therefore, the effect of (OEG2)2-IP4 on the development of VC was investigated in a previously established adenine and high-phosphate-diet-induced rat model of VC that results in uremia and chronic renal failure. […] (OEG2)2-IP4 was administered via a s.c.-implanted osmotic pump at doses of 5, 15, or 50 mg/kg/day for 4 weeks, and treatment was initiated 1 week after the start of adenine supplementation. […] Animals in this model developed severe CKD (Supplementary Fig. 20), which was accompanied by substantial weight loss (Supplementary Fig. 21). No significant difference in the level of renal failure and body weight loss was observed between the different treatment groups, with the exception of creatinine at week 3 and serum phosphate at sacrifice in the 15 mg/kg/day group (Supplementary Fig. 20).
The inhibitory effect of (OEG2)2-IP4 on heart calcifications was significant starting at 15 mg/kg/day (Fig. 6b). The compound’s activity was also evident following von Kossa staining (Fig. 6c) on the thoracic part of the aorta, and quantification of the von Kossa-positive area (Fig. 6d). […] In the femoral artery, reduction in bulk calcium was insignificant for all tested groups, likely due to the low level of calcification detected in the vehicle control (Fig. 6f, Supplementary Table 9).
Male Wistar rats (Charles River) were housed two per cage with free access to water and standard chow and submitted to a 12-h light/dark cycle. Compounds were administered and doses calculated using the salt form. Animals were randomly assigned to four groups of 12 animals each and given a high-phosphate (1.03%) diet for 2 weeks before starting a special diet to initiate uremia. Uremia/VC was induced in all animals by freely fed diet containing high-phosphate (0.92%), low-protein (2.5% instead of 19%), and adenine (0.75%) for 4 weeks. The diet was again switched to a high-phosphate (1.03%) diet for 1 week, after which rats were sacrificed.
The first group was treated with vehicle (double distilled (d.d.) water), the second, third, and fourth groups were treated with daily doses equivalent of 5, 15, and 50 mg/kg of (OEG2)2-IP4, respectively, in 2 mL d.d. water starting 1 week after the administration of the adenine diet. Compounds were delivered continuously for 4 weeks via osmotic pumps (type 2ML4; Alzet, Cupertino, CA, USA) implanted subcutaneously under anesthesia 1 week after the start of the adenine diet. Blood sampling for serum and plasma at baseline, week 1, and week 3 was performed in restrained, conscious animals. […] Serum samples were analyzed for creatinine according to the Jaffe method, calcium (using flame atomic absorption spectrometry[74]), and phosphate (DiaSys Diagnostic Systems, Holzheim, Germany) concentrations. In serum samples taken at sacrifice, the CPP-associated calcium was quantified by calculating the difference between total serum calcium (measured in serum supernatants after centrifugation at 3000 × g, RT, 15 min) and serum calcium after removing CPPs by centrifugation (16,000 × g and 4 °C for 120 min)[26]. In addition, serum aliquots were centrifuged (10,000 × g, 4 °C, 30 min) and T50’s were determined as described above. CPP size was monitored by hourly DLS measurements at 37 °C, after spiking cleared serum samples with calcium (10 mM) and phosphate (6 mM), for a total of 8 h[29].
At sacrifice, the heart, the abdominal aorta, left carotids, and femoral arteries were collected. The presence of calcification in each animal was evaluated on paraffin-embedded, von Kossa stained sections of the thoracic aorta (as described previously[74]), as well as by measurement of the total calcium content in the heart and vascular tissue samples by flame atomic absorption spectrometry.

Glutamate, AMPA = experiment: Off-target 232600; type: binding, Rat; conditions: 10 µM
Protocol: as §1, §2, §7, §6, §8, §9

[2] = molecular target: T2, Peptidase, Angiotensin Converting Enzyme (Oryctolagus cuniculus, UniProt P12822); experiment: Off-target 107300; type: biochemical, Rabbit
T2 construct: purchased Eurofins Panlabs Discovery Services Taiwan, Ltd
Protocol: as §1, §2, §3, §4, §5, §6

Monoamine Oxidase MAO-B = molecular target: T3, Monoamine Oxidase MAO-B (Homo sapiens, UniProt P27338); experiment: Off-target 140120; type: biochemical
T3 construct: purchased Eurofins Panlabs Discovery Services Taiwan, Ltd
Protocol: as §1, §2, §7, §6, §8, §9

[3] = molecular target: T4, Serotonin (5-Hydroxytryptamine) 5-HT1B (Homo sapiens, UniProt P28222); experiment: Off-target 271230; type: binding
T4 construct: purchased Eurofins Panlabs Discovery Services Taiwan, Ltd
Protocol: as §1, §2, §7, §6, §8, §9

[4] = system: Protein Serine/Threonine Kinase, PKC, Non-selective; experiment: Off-target 178010; type: biochemical, Rat; conditions: 10 µM
Protocol: as §1, §2, §7, §6, §8, §9

Muscarinic M4 = molecular target: T5, Muscarinic M4 (Homo sapiens, UniProt P08173); experiment: Off-target 252910; type: binding
T5 construct: purchased Eurofins Panlabs Discovery Services Taiwan, Ltd
Protocol: as §1, §2, §3, §4, §5, §6

T2 sequence (P12822 34-1310): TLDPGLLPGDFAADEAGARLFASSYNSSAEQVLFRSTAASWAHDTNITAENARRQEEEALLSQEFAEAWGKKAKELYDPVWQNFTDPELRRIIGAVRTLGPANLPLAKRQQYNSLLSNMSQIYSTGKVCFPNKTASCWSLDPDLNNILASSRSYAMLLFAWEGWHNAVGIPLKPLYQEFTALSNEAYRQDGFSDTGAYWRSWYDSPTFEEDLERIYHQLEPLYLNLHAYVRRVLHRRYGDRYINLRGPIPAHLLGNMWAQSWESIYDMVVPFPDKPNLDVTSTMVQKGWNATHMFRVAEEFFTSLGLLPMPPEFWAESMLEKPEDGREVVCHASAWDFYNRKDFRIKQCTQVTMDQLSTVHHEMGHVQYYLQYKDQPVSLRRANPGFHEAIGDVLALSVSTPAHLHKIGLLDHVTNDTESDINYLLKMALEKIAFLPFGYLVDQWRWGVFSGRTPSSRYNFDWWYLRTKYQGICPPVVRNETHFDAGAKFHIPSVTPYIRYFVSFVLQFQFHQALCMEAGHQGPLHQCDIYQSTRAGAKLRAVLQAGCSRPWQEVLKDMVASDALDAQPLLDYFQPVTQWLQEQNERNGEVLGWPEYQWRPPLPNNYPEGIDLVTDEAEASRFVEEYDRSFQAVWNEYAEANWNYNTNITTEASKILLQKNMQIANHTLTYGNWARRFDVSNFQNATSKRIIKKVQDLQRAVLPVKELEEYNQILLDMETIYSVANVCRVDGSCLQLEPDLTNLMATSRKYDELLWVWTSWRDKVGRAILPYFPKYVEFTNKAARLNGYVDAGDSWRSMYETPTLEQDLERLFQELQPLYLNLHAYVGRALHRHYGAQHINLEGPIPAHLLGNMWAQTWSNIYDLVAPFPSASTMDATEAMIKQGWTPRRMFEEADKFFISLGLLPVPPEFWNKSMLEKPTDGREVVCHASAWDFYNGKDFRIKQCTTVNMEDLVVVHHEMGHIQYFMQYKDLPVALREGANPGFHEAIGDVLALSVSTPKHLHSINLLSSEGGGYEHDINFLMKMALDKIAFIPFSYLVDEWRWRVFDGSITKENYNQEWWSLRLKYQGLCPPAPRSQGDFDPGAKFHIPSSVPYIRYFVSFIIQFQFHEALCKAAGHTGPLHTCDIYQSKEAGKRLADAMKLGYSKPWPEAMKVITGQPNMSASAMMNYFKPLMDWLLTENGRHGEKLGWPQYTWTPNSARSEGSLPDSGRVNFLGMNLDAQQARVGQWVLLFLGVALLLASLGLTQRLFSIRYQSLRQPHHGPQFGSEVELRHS
T3 sequence (P27338 whole entry): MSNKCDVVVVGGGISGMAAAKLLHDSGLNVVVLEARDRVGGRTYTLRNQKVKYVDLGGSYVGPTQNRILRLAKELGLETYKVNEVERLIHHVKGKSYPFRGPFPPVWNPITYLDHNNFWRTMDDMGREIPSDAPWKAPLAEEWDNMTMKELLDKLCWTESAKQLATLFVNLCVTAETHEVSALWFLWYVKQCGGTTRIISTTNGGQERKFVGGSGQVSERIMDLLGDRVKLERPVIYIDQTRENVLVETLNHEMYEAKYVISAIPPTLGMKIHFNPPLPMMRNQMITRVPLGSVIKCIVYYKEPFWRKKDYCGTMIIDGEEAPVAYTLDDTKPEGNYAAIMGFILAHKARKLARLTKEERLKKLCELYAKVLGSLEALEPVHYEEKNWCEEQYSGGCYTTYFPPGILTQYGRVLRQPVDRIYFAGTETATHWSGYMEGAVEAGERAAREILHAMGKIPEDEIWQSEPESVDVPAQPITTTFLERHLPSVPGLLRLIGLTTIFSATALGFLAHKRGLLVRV
T1 sequence (Q9UBS5 15-961 limits assumed): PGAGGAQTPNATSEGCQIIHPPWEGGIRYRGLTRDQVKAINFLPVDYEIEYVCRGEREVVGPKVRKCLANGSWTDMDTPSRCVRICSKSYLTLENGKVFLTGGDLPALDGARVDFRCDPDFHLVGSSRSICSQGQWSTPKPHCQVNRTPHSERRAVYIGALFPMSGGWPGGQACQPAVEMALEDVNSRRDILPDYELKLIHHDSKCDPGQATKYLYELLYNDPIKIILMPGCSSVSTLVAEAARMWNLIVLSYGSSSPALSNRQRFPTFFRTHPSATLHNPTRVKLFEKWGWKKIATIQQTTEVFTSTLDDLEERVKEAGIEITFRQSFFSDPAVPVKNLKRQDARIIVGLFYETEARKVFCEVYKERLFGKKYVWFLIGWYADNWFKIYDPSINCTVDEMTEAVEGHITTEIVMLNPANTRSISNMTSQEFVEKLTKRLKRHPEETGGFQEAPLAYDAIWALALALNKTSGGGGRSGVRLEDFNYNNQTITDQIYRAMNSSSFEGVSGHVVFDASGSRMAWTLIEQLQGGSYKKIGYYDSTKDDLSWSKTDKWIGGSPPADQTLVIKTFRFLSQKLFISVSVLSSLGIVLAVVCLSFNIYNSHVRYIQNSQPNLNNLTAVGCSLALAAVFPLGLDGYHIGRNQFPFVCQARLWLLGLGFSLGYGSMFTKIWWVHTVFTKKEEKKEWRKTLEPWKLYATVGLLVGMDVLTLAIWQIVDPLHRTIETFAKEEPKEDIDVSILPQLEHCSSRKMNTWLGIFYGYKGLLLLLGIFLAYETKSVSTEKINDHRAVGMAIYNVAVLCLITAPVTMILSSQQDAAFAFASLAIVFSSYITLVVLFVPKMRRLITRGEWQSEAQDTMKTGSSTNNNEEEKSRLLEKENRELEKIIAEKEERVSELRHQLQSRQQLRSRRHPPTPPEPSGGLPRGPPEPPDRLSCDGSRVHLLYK
T1 sequence (O75899 42-941 partner): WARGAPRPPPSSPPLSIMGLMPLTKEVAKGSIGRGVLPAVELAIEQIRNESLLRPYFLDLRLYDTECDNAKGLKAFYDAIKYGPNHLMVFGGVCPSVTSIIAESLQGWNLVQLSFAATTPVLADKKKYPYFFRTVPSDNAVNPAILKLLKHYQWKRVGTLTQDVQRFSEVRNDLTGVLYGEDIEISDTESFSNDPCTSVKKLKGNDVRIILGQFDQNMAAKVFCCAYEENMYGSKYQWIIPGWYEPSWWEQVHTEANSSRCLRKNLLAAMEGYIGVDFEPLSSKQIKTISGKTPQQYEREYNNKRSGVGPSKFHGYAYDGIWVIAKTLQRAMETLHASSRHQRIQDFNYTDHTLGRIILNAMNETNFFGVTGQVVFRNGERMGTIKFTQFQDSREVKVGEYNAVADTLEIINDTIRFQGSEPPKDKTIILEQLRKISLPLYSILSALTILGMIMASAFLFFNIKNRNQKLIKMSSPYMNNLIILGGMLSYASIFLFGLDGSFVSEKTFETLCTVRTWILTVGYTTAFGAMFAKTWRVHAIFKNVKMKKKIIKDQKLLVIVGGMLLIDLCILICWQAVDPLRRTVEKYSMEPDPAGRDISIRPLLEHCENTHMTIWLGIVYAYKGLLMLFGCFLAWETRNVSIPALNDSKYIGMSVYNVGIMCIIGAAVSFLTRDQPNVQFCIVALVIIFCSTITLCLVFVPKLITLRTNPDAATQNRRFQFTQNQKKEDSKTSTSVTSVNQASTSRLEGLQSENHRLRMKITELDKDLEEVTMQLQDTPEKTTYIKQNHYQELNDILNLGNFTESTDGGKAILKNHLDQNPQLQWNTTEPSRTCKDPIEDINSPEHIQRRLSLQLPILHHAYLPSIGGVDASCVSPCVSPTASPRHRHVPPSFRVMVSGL
T4 sequence (P28222 whole entry): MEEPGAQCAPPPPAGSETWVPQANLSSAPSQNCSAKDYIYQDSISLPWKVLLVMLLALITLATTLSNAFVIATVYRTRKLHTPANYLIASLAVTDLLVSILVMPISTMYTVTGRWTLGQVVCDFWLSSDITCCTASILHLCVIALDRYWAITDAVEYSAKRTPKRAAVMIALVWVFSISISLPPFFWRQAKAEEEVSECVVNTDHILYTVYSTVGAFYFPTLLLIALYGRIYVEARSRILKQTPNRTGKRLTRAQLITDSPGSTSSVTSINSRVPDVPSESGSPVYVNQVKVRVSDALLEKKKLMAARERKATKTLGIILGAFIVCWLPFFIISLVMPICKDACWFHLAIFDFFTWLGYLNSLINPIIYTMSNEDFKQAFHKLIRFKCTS
T5 sequence (P08173 whole entry): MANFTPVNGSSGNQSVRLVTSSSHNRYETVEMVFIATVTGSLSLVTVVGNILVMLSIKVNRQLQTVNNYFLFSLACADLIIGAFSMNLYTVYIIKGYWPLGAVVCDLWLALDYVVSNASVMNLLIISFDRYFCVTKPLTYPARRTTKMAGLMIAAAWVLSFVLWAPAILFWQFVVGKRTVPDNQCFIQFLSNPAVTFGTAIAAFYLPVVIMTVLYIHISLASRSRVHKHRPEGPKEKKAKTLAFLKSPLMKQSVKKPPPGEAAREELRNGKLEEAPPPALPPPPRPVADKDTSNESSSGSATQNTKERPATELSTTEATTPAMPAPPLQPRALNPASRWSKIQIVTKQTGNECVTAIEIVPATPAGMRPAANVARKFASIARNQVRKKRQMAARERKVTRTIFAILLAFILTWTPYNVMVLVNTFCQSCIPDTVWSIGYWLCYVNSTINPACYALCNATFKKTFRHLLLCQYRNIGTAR

COCCOCCO[C@@H]1[C@@H](OP(=O)(O)O)[C@H](OCCOCCOC)[C@@H](OP(=O)(O)O)[C@@H](OP(=O)(O)O)[C@H]1OP(=O)(O)O [(OEG2)2-IP4, 4,6-Di-O-(methoxy-diethyleneglycol)-myo-inositol-1,2,3,5-tetrakis(phosphate)]
inhibition at 10 µM (GABAB1A): -7% | off-target activity in 87 biochemical assays [1]: did not significantly inhibit or stimulate any | Calcium, A. abdominialis (vascular calcification; 5 mg/kg/day): 12.71 ± 11.66 mg/g tissue | Calcium, A. carotis (vascular calcification; 5 mg/kg/day): 11.06 ± 9.10 mg/g tissue | Calcium, A. femoralis (vascular calcification; 5 mg/kg/day): 4.47 ± 3.95 mg/g tissue | Calcium, Heart (vascular calcification; 5 mg/kg/day): 0.05 ± 0.03 mg/g tissue | Von Kossa positive area in the aorta thoracalis (vascular calcification; 5 mg/kg/day): 17.86 ± 12.46% | Mortality (animals) (vascular calcification; 5 mg/kg/day, s.c. osmotic pump, 4 weeks): 0/12 | Calcium, A. abdominialis (vascular calcification; 15 mg/kg/day): 6.24 ± 3.70 mg/g tissue | Calcium, A. carotis (vascular calcification; 15 mg/kg/day): 5.07 ± 6.23 mg/g tissue | Calcium, A. femoralis (vascular calcification; 15 mg/kg/day): 4.14 ± 1.92 mg/g tissue | Calcium, Heart (vascular calcification; 15 mg/kg/day): 0.04 ± 0.01 mg/g tissue | Mortality (animals) (vascular calcification; 15 mg/kg/day): 1/12 | Von Kossa positive area in the aorta thoracalis (vascular calcification; 15 mg/kg/day): 14.35 ± 11.49% | Calcium, A. abdominialis (vascular calcification; 50 mg/kg/day): 1.69 ± 1.80 mg/g tissue | Calcium, A. carotis (vascular calcification; 50 mg/kg/day): 0.84 ± 1.11 mg/g tissue | Calcium, A. femoralis (vascular calcification; 50 mg/kg/day): 2.01 ± 1.41 mg/g tissue | Calcium, Heart (vascular calcification; 50 mg/kg/day): 0.04 ± 0.02 mg/g tissue | Mortality (animals) (vascular calcification; 50 mg/kg/day): 1/12 | Von Kossa positive area in the aorta thoracalis (vascular calcification; 50 mg/kg/day): 2.72 ± 5.97% | calcification in the carotid artery compared to the 5 and 15 mg/kg/day groups (vascular calcification; 50 mg/kg/day): prevented calcification in the carotid artery | calcemic status of the animals (vascular calcification; 50 mg/kg/day for 4 weeks): not influenced | bulk calcium in the abdominal aorta compared to vehicle (vascular calcification; 5, 15, 50 mg/kg/day): trend in a dose-dependent reduction of bulk calcium | reduction in bulk calcium in the femoral artery (vascular calcification; all tested groups): insignificant | dose from which inhibitory effect on heart calcifications was significant (vascular calcification; rat, in vivo): ≥ 15 mg/kg/day | % Inhibition (Glutamate, AMPA): 8% | inhibition at 10 µM [2]: -23% | inhibition at 10 µM (Monoamine Oxidase MAO-B): 0% | inhibition at 10 µM [3]: -4% | % Inhibition [4]: -18% | inhibition at 10 µM (Muscarinic M4): 1%
